Results: patent US20240158446A1, “CYCLIC COMPOUND HAVING SELECTIVE INHIBITORY ACTION ON KRAS OVER HRAS AND NRAS” (CHUGAI SEIYAKU KABUSHIKI KAISHA, priority 2021, published 2024)
Where two headings read alike, the source gives them in different places. *1 amine or outer side, *2 acyl side, *3 side chain or, on linkers, in order; H or OH if unused. Where a SMILES comes first, the peptide text is derived from it. Bridges are numbered along the chain shown (N, C = ends). [ ]: non-standard residue; d: D form. The star is where a group is joined. hPhe(3,5-F2-4-CF3) = N[C@@H](CCc1cc(F)c(C(F)(F)F)c(F)c1)C(=O)O; hPhe(3-Cl-4-CF3) = N[C@@H](CCc1ccc(C(F)(F)F)c(Cl)c1)C(=O)O; NPrPhe(4-CF3) = CCCN[C@@H](Cc1ccc(C(F)(F)F)cc1)C(=O)O; NMeGly(cPent) = CN[C@H](C(=O)O)C1CCCC1; X11 = CCC[C@](C)(N[*:1])C(=O)[*:2]; Gly(cBu) = N[C@H](C(=O)O)C1CCC1; NMeD = CN[C@@H](CC(=O)O)C(=O)O; NMeL = CN[C@@H](CC(C)C)C(=O)O; Morpholide = C1CN(*)CCO1; Ac5c = NC1(C(=O)O)CCCC1; Aze = O=C(O)[C@@H]1CCN1; Sar = CNCC(=O)O

Columns and labels:
[1] = molecular target: GDP-bound KRAS wild-type protein (Homo sapiens, UniProt P01116); test: Binding to KRAS by surface plasmon resonance (SPR), Single Cycle Kinetics; conditions: GDP-bound KRAS wild-type protein, read-out: KRAS KD
Chain of GDP-bound KRAS wild-type protein (P01116 whole entry): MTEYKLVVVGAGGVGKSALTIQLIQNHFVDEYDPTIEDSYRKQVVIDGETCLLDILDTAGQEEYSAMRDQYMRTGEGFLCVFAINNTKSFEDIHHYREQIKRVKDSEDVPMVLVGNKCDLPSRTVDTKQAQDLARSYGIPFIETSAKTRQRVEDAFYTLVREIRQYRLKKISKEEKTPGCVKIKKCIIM

[2] = molecular target: GDP-bound NRAS wild-type protein (Homo sapiens, UniProt P01111); test: Binding to NRAS by surface plasmon resonance (SPR), Single Cycle Kinetics; conditions: SPR, GDP-bound NRAS wild-type protein vs GDP-bound KRAS wild-type protein
Chain of GDP-bound NRAS wild-type protein (P01111 whole entry): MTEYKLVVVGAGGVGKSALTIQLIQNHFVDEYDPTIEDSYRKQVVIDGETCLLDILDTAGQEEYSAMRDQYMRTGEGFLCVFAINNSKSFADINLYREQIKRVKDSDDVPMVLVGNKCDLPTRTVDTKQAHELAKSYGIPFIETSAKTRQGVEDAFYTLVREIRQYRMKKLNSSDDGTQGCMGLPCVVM

[3] = molecular target: GDP-bound HRAS wild-type protein (Homo sapiens, UniProt P01112); test: Binding to HRAS by surface plasmon resonance (SPR), Single Cycle Kinetics; conditions: SPR, GDP-bound HRAS wild-type protein vs GDP-bound KRAS wild-type protein
Chain of GDP-bound HRAS wild-type protein (P01112 whole entry): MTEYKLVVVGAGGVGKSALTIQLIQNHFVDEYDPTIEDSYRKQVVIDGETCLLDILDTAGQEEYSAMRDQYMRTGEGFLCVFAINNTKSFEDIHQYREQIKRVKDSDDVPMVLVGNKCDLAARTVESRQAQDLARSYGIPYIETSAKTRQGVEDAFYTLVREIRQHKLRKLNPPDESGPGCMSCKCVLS

[4] = SPR Single Cycle Kinetics, 1:1 binding model

Row | Compound | Kd [1, 4] [nM] | Kd ([1]; SPR, Single Cycle Kinetics) [nM] | NRAS/KRAS (ratio of KD value with respect to NRAS to KD value with respect to KRAS) [2] | HRAS/KRAS (ratio of KD value with respect to HRAS to KD value with respect to KRAS) [3] | NRAS/KRAS (ratio of KD value for NRAS to KD value for KRAS) [2] | HRAS/KRAS (ratio of KD value for HRAS to KD value for KRAS) [3]
1 | CCO[C@@H]1C[C@H]2C(=O)NC3(CCC3)C(=O)N(C)[C@@H](C3CCCC3)C(=O)N(C)[C@H](C(=O)N(C)C)CC(=O)N(C)[C@@H](Cc3cccnc3)C(=O)N[C@@H]([C@@H](C)CC)C(=O)N(C)CC(=O)N(C)[C@H]3CCCCCN(C3=O)[C@@H](Cc3ccc(C(F)(F)F)cc3)C(=O)N(C)CC(=O)N[C@@H](CCc3cc(F)c(C(F)(F)F)c(F)c3)C(=O)N2C1 [PP0673] | 0.12 |  | B (a compound having 3 or more and less than 10 is denoted as B) | B (a compound having 3 or more and less than 10 is denoted as B) |  | 
2 | CC[C@H](C)[C@@H]1NC(=O)[C@H](CC(C)C)N(C)C(=O)C[C@@H](C(=O)N2CCOCC2)N(C)C(=O)[C@H](C2CCCC2)N(C)C(=O)C2(CCCC2)NC(=O)[C@@H]2CCCN2C(=O)[C@H](CCc2ccc(C(F)(F)F)c(Cl)c2)NC(=O)CN(C)C(=O)[C@H](Cc2ccc(OC(F)(F)F)cc2)N2C/C=C\CC[C@@H](C2=O)N(C)C(=O)CN(C)C1=O [PP0610] | 49 |  | B (a compound having 3 or more and less than 10 is denoted as B) | B (a compound having 3 or more and less than 10 is denoted as B) |  | 
3 | CCO[C@@H]1C[C@H]2C(=O)NC3(CC(C)(C)C3)C(=O)N(C)[C@@H](C3CCCC3)C(=O)N(C)[C@H](C(=O)N(C)C)CC(=O)N(C)[C@H]3CCCCCCc4ccc(cc4)C[C@@H](C(=O)N(C)CC(=O)N[C@@H](CCc4ccc(C(F)(F)F)c(OC)c4)C(=O)N2C1)N1CC/C=C\C[C@@H](C1=O)N(C)C(=O)CN(C)C(=O)[C@H]([C@@H](C)CC)NC3=O [PP3066] |  | 0.042 |  |  | A (a compound having 10 or more and less than 20 is denoted as A) | B (a compound having 3 or more and less than 10 is denoted as B)
4 | CCCN1C(=O)CN(C)C(=O)[C@@H]2CCN2C(=O)[C@H](C2CCC2)NC(=O)[C@H](CC(C)C)N(C)C(=O)C[C@@H](C(=O)N2CCOCC2)N(C)C(=O)[C@H](C2CCCC2)N(C)C(=O)C2(CCCC2)NC(=O)[C@@H]2CCCN2C(=O)[C@H](CCc2ccc(C(F)(F)F)c(Cl)c2)NC(=O)CN(C)C(=O)[C@@H]1Cc1ccc(C(F)(F)F)cc1 [PP0305] ([NMeL][Gly(cBu)][Aze][Sar][NPrPhe(4-CF3)][Sar][hPhe(3-Cl-4-CF3)]P[Ac5c][NMeGly(cPent)][NMeD]-Morpholide; lactam N-11) | 0.96 |  |  |  | B (a compound having 3 or more and less than 10 is denoted as B) | C (A compound having a KD ratio of 0.1 or more and less than 3 is denoted as C)

Continued, in another order:

Row | Kd [1, 4] [nM] | Kd ([1]; SPR, Single Cycle Kinetics) [nM] | Compound | NRAS/KRAS (ratio of KD value with respect to NRAS to KD value with respect to KRAS) [2] | HRAS/KRAS (ratio of KD value with respect to HRAS to KD value with respect to KRAS) [3] | NRAS/KRAS (ratio of KD value for NRAS to KD value for KRAS) [2] | HRAS/KRAS (ratio of KD value for HRAS to KD value for KRAS) [3]
5 | 1.6 |  | CCCN1C(=O)CN(C)C(=O)CN(C)C(=O)[C@H]([C@@H](C)CC)NC(=O)[C@H](CC(C)C)N(C)C(=O)C[C@@H](C(=O)N2CCOCC2)N(C)C(=O)[C@H](C2CCCC2)N(C)C(=O)[C@](C)(CCC)NC(=O)[C@@H]2CCCN2C(=O)[C@H](CCc2cc(F)c(C(F)(F)F)c(F)c2)NC(=O)CN(C)C(=O)[C@@H]1Cc1ccc(C(F)(F)F)cc1 [PP0758] ([NMeL]I[Sar][Sar][NPrPhe(4-CF3)][Sar][hPhe(3,5-F2-4-CF3)]P[X11][NMeGly(cPent)][NMeD]-Morpholide; lactam N-11) | B (a compound having 3 or more and less than 10 is denoted as B) | C (A compound having a KD ratio of 0.1 or more and less than 3 is denoted as C) |  | 
6 |  | 0.53 | CCCO[C@@H]1C[C@H]2C(=O)NC3(CCC3)C(=O)N(C)[C@@H](C3CCCC3)C(=O)N(C)[C@H](C(=O)N3CCOCC3)CC(=O)N(C)[C@@H](COC)C(=O)N[C@@H]([C@@H](C)CC)C(=O)N(C)CC(=O)N(C)[C@H]3CCCCCN(C3=O)[C@@H](Cc3ccc(C(F)(F)F)cc3)C(=O)N(C)CC(=O)N[C@@H](CCc3cc(F)c(C(F)(F)F)c(F)c3)C(=O)N2C1 [PP0838] |  |  | B (a compound having 3 or more and less than 10 is denoted as B) | B (a compound having 3 or more and less than 10 is denoted as B)
7 |  | 1.1 | CCO[C@H]1CCN2C(=O)[C@H](CCc3cc(F)c(C(F)(F)F)c(F)c3)NC(=O)CN(C)C(=O)[C@H](Cc3ccc(C(F)(F)F)cc3)N3CCCCC[C@@H](C3=O)N(C)C(=O)CN(C)C(=O)[C@H]([C@@H](C)CC)NC(=O)[C@H](CC(C)C)N(C)C(=O)C[C@@H](C(=O)N3CCOCC3)N(C)C(=O)[C@H](C3CCCC3)N(C)C(=O)C3(CCC3)NC(=O)[C@H]12 [PP1068] |  |  | A (a compound having 10 or more and less than 20 is denoted as A) | B (a compound having 3 or more and less than 10 is denoted as B)
